Data on three compounds can be found in patent US20200308620A1, “PREDICTING TUMOR SPECIFICITY OF TARGETED THERAPEUTICS USING ATOMIC FORCE MICROSCOPY (AFM)” (Children's Medical Center Corporation, priority 2017, published 2020).

In series [1] the test system is patient-derived NHL B cells. Particulars: cited from earlier work.
For the next series, the system named is normal red blood cells. Particulars: Li et al.; cited from earlier work.
The test system of series [2] is ICAM1 expression on MDA-MB-231 cell surface. The experiment in a line: Flow cytometric analysis of ICAM1 surface expression pre- and post-MCD treatment. Particulars: MDA-MB-231, pre- and post-MCD treatment. The series is classed as cell-based, human. An excerpt: In addition to the overexpression level, the organization of antigens on the cell membrane is another key factor driving differences in antibody-antigen binding behavior^11. AFM-detected adhesive events were also used to spatially map the binding forces on MDA-MB-231 (FIG. 2E) and MCF10A (FIG. 2F) cell surface. […] These “hot-spots” are predicted to be the primary binding sites for ICAM1 antibody-directed nanomedicine due to the high binding forces. ICAM1 molecules may be enriched in membrane lipid rafts of MDA-MB-231 cells to facilitate functional signaling^22. […] In order to determine whether ICAM1 adhesion forces are dependent on the organization of ICAM1 molecules in lipid rafts on the cell membrane, both MDA-MB-231 and MCF10A cells were treated with methyl-beta-cyclodextrin (MCD), a cholesterol-depleting drug that disrupts lipid rafts, and then the average binding force was re-measured. […]
10^6 cells were collected and rinsed twice through suspension-spin cycles. […] Cells were rinsed with 1% BSA in PBS three times, resuspended in PBS, and evaluated by a BD FACSCalibur flow cytometer (BD Biosciences). Quantification of cell surface antigen was determined with reference to Quantum Simply Cellular microbeads, using the protocol provided by the manufacturer.
(In flow cytometry, cells or beads pass a laser one at a time.)

For another series, the system named is MDA-MB-231 cells. The experiment in a line: In vitro cytotoxicity (cell viability) assay. Particulars: MDA-MB-231, Dox concentration, treated 4 hours, grown 48 hours. In kind it is cell-based, human. Here is the method:
In vitro cytotoxicity of ICAM-Dox-LPs on TNBC cells was evaluated using a cell viability assay. Five thousand cells (MDA-MB-231, MDA-MB-436, and MDA-MB-157) were seeded in each well of a 96 well plate and incubated for 24 hours. Cells were treated with (1) ICAM-LP without Dox; (2) Free Dox; (3) non-specific IgG-Dox-LPs and (4) ICAM-Dox-LPs for 4 hours. Cells were rinsed twice with PBS and grown for 48 hours. Cell viability was determined by a Dojindo cell counting kit using the manufacturer's protocol (Rockville, Md.).

Values after ≈ are worked out from the molar mass of the structure shown.

On to “Rituximab: FDA-approved CD20 antibody for Non-Hodgkin's Lymphoma treatment”, for which the “binding force difference (NHL B cells minus normal red blood cells)” value in series [1] (NHL B cells minus normal red blood cells) is recorded as 33 pN. The binding force is on record as 54±34 pN in series [1] (patient-derived NHL B cells, Li et al.) and 21±19 pN in the series on normal red blood cells. For methyl-beta-cyclodextrin [MCD], the “effect on average ICAM1 expression on cell surface” value in series [2] is listed as “did not affect”. With `COc1cccc2c1C(=O)c1c(O)c3c(c(O)c1C2=O)C[C@@](O)(C(=O)CO)C[C@@H]3O[C@H]1C[C@H](N)[C@H](O)[C@H](C)O1` [free Dox, doxorubicin], the “IC50 (cytotoxicity)” value in the series with MDA-MB-231 cells stood at 7.4 µg/mL (≈ 13.6 µM).
